Assay results: publication PMC4318710 (Bioorganic & medicinal chemistry letters, 2015)

How the values were obtained:
[1] = tested on: C57BL/6 mice; test: in vivo serum iron levels in mice after intraperitoneal peptide injection; details: 50-100 nmoles/mouse
[2] = stability on prolonged storage in DMSO; format: physicochemical; details: 10 mM solution in DMSO, room temperature, 30 days, LC/MS/MS

Structure (SMILES) | serum iron at 6 and 24 h time points [1] | stability in DMSO [2] [%]
CCCCCCCCCCCCCCCCNC(=O)CN(CC(N)=O)C(=O)CCCCCNC(=O)C[C@H](Cc1ccccc1)NC(=O)[C@H](CCCNC(=N)N)NC(=O)[C@H](CSC(=CP(=O)(OCC)OCC)P(=O)(OCC)OCC)NC(=O)[C@H](CCCNC(=N)N)NC(=O)C[C@@H]1CCCN1C(=O)[C@@H](NC(=O)[C@H](Cc1c[nH]cn1)NC(=O)[C@@H](NC(=O)CNCC(=O)O)[C@@H](C)O)C(c1ccccc1)c1ccccc1 [PR73SH] | decreased serum iron | 99.5±0.5
CCCCCCCCCCCCCCCCNC(=O)CN(CC(N)=O)C(=O)CCCCCNC(=O)C[C@H](Cc1ccccc1)NC(=O)[C@H](CCCNC(=N)N)NC(=O)[C@H](CS)NC(=O)[C@H](CCCNC(=N)N)NC(=O)C[C@@H]1CCCN1C(=O)[C@@H](NC(=O)[C@H](Cc1c[nH]cn1)NC(=O)[C@@H](NC(=O)CNCC(=O)O)[C@@H](C)O)C(c1ccccc1)c1ccccc1 [PR73] | decreased serum iron | –
